Measured values published in patent US5880256A, “Factor VIIa inhibitors from Kunitz domain proteins” (Genentech, Inc., priority 1995, dated 1999).
Positions of bridges follow the written chain, without caps; N, C: chain ends. No end group written: not given here.

Legend:
[1] = system: New Zealand white rabbits; experiment: Cuticle bleeding time in the rabbit model; type: in vivo; settings: for bleeding compared to the saline control (in words): after 10 minutes
Description: Male New Zealand white rabbits (~4 kg) were anesthetized to surgical anesthesia plane with an IM injection of Ketamine / Xylaxine. The rabbits were placed supine on a restraining board, warmed to 37° C., and the neck and inner thigh area shaved. Teflon catheters were replaced in a marginal ear vein and femoral artery for drug delivery and sample collection respectively. Prior to treatment, blood samples were collected for coagulation tests (APTT and PT). Bleeding time was assessed from a cut made in the cuticle portion of a hind limb nail. Incisions were made in the neck region and the entire left common carotid artery and its branches were surgically isolated. An ultrasonic flow probe (Transonics®) was placed on the common carotid approximately 5 cm caudal to the common--internal bifurcation. After blood flow reached a stable baseline, drugs (saline or test compounds) were delivered via the marginal ear vein. A deflated embolectomy catheter (Fogarty®, 3F) was then introduced into the lumen of the common via an incision in the lingual branch. Blood flow through the artery was stopped briefly while the catheter was introduced and loosely secured with 2-0 silk tie at the incision site. After the catheter was in place and secure, blood flow was restored. The deflated balloon was advanced to within 2 mm of the flow probe and inflated with saline until resistance of the vessel wall was felt. The catheter was pulled back with a steady motion to the first branch and then deflated. This procedure was repeated a total of six times for each experimental animal, after which the catheter was removed. […] Over 40 minutes, blood samples were taken for APTT and PT measurements, cuticle bleeding times were assessed and blood flow through the carotid monitored. Duration of patency was defined as the total amount of time (maximum=40 minutes) that any measurable blood flow is detected in the artery. Patency rate refers to the percentage of animals tested who had carotid artery blood flow≥5 minutes. […] If any thrombus was present, it was removed, blotted and the weight recorded. […]

normal human plasma = experiment: Activated partial thromboplastin time (APTT) assay, initiated by ellagic acid; type: biochemical
Description: For the activated partial thromboplastin time (APTT) assays, the activation time was set at 120 sec and acquisition time at 300 to 600 sec depending on the expected outcome of the assay. Citrated normal human plasma and inhibitor were incubated together. The sample (plasma and inhibitor) and activator (Instrumentation Laboratories Ellagic acid/Phospholipid mix Test Reagent) were automatically pipetted and incubated together for 2 min at 37° C., then CaCl2 was added and clotting time determined by means of optical assessment. The total incubation time of inhibitor with plasma was ca. 3 min before addition of activator, and 5 min before addition of CaCl2.

[2] = system: New Zealand white rabbits; experiment: Rabbit deep medial injury model (carotid artery patency, thrombus weight); type: in vivo
Description: Male New Zealand white rabbits (~4 kg) were anesthetized to surgical anesthesia plane with an IM injection of Ketamine / Xylaxine. The rabbits were placed supine on a restraining board, warmed to 37° C., and the neck and inner thigh area shaved. Teflon catheters were replaced in a marginal ear vein and femoral artery for drug delivery and sample collection respectively. Prior to treatment, blood samples were collected for coagulation tests (APTT and PT). Bleeding time was assessed from a cut made in the cuticle portion of a hind limb nail. Incisions were made in the neck region and the entire left common carotid artery and its branches were surgically isolated. An ultrasonic flow probe (Transonics®) was placed on the common carotid approximately 5 cm caudal to the common--internal bifurcation. After blood flow reached a stable baseline, drugs (saline or test compounds) were delivered via the marginal ear vein. A deflated embolectomy catheter (Fogarty®, 3F) was then introduced into the lumen of the common via an incision in the lingual branch. Blood flow through the artery was stopped briefly while the catheter was introduced and loosely secured with 2-0 silk tie at the incision site. After the catheter was in place and secure, blood flow was restored. The deflated balloon was advanced to within 2 mm of the flow probe and inflated with saline until resistance of the vessel wall was felt. The catheter was pulled back with a steady motion to the first branch and then deflated. This procedure was repeated a total of six times for each experimental animal, after which the catheter was removed. […] Over 40 minutes, blood samples were taken for APTT and PT measurements, cuticle bleeding times were assessed and blood flow through the carotid monitored. Duration of patency was defined as the total amount of time (maximum=40 minutes) that any measurable blood flow is detected in the artery. Patency rate refers to the percentage of animals tested who had carotid artery blood flow≥5 minutes. At the end of the experiment the rabbit was euthanized and the carotid artery removed and opened. If any thrombus was present, it was removed, blotted and the weight recorded.
[Heparin was dosed as a 25 u/kg bolus followed by a continuous infusion of 1) 0.5 u/kg/min or 2) 1 u/kg/min. Other reagents were given as a 2 mg/kg IV bolus. With the exception of the patency data, values are expressed as means ±sem.]

Compound: CC[C@H](C)[C@@H]1NC(=O)[C@H](CC(C)C)NC(=O)[C@H](C)NC(=O)[C@H](CCCNC(=N)N)NC(=O)[C@@H]2CSSC[C@@H]3NC(=O)CNC(=O)CNC(=O)[C@H](Cc4ccc(O)cc4)NC(=O)[C@H](Cc4ccccc4)NC(=O)[C@H](Cc4ccccc4)NC(=O)[C@@H]4CCCN4C(=O)[C@H](C)NC(=O)[C@H](CSSC[C@H](NC(=O)[C@H](Cc4ccc(O)cc4)NC(=O)[C@H](CCC(=O)O)NC(=O)[C@H](CCC(=O)O)NC(=O)[C@H]([C@@H](C)O)NC(=O)[C@H](CC(=O)O)NC(=O)[C@H](Cc4ccccc4)NC(=O)[C@H](CC(N)=O)NC(=O)[C@H](CC(N)=O)NC(=O)[C@H](CCCNC(=N)N)NC(=O)[C@H](CC(N)=O)NC(=O)CNC(=O)[C@H](Cc4ccc(O)cc4)NC3=O)C(=O)N[C@@H](C)C(=O)N[C@@H](C)C(=O)N[C@@H](C(C)C)C(=O)N[C@H](C(=O)NCC(=O)N[C@@H](CO)C(=O)N[C@@H](C)C(=O)O)CSSC[C@H](NC(=O)[C@@H](NC(=O)[C@H](CCC(=O)O)NC(=O)[C@H](CCCNC(=N)N)NC(=O)[C@@H](N)C(C)C)C(C)C)C(=O)N[C@@H](CO)C(=O)N[C@@H](CCC(=O)O)C(=O)N[C@@H](CCC(N)=O)C(=O)N[C@@H](C)C(=O)N[C@@H](CCC(=O)O)C(=O)N3CCC[C@H]3C(=O)NCC(=O)N3CCC[C@H]3C(=O)N2)NC(=O)[C@H](CCCCN)NC(=O)CNC(=O)[C@H](CCC(=O)O)NC(=O)[C@H]([C@@H](C)O)NC(=O)[C@H](C(C)C)NC(=O)[C@H](CC(=O)O)NC(=O)[C@H](Cc2ccccc2)NC(=O)[C@H](Cc2ccc(O)cc2)NC(=O)[C@H](Cc2c[nH]c3ccccc23)NC(=O)[C@H](CCCNC(=N)N)NC(=O)[C@H](CC(C)C)NC1=O [TF7I-C]
- bleeding compared to the saline control (in words) [1]: did not induce prolonged bleeding

Compound: APPI: Alzheimer's amyloid β-protein precursor inhibitor, 58 residue Kunitz domain, wild type (SEQ ID NO: 34) (VREVCSEQAETGPCRAMISRWYFDVTEGKCAPFFYGGCGGNRNNFDTEEYCMAVCGSA)
- APTT clotting time, fold prolongation (normal human plasma; 40 μM inhibitor, uninhibited clotting time 31 s): 3.6 fold
- APTT clotting time, fold prolongation (normal human plasma; ca. 7 μM inhibitor): ca. 3 fold
- Patency (%) ([2]; rabbit, 2 mg/kg IV bolus, animals with carotid blood flow ≥5 minutes): 40%
- Patency Duration ([2]; rabbit, 2 mg/kg IV bolus, maximum 40 minutes, mean ± sem): 13.4 ± 8.5 min
- Clot (mgs) ([2]; rabbit, 2 mg/kg IV bolus, thrombus weight, mean ± sem): 49.5 ± 18.2 mgs
- Cuticle bleeding time, fold increase over pre dose ([1]; in vivo, iv, 2 mg/kg): 2.2 ± 0.6 fold

Compound: Heparin
- patency and clot size compared to the saline control (in words) ([2]; rabbit deep medial injury model): significantly prolonged patency and reduced clot size
- Patency (%) ([2]; rabbit, Heparin 1: 25 u/kg bolus then 0.5 u/kg/min infusion): 67%
- Patency Duration ([2]; rabbit, Heparin 1: 25 u/kg bolus then 0.5 u/kg/min infusion, mean ± sem): 23.3 ± 6.7 min
- Patency (%) ([2]; rabbit, Heparin 2: 25 u/kg bolus then 1 u/kg/min infusion): 100%
- Patency Duration ([2]; rabbit, Heparin 2: 25 u/kg bolus then 1 u/kg/min infusion, mean ± sem): 35.2 ± 2.2 min

Compound: VREVCSEQAEPGPCRAMMKRWYFDVTEGKCAPFIYGGCYGNRNNFDTEEYCAAVCGSA (disulfide 5-55, 14-38, 30-51) [IV-49C]
- bleeding compared to the saline control (in words) [1]: did not induce prolonged bleeding
